pIC50: −log10 of the molar value.

Assay [1] has as its target human A2A adenosine receptor (Homo sapiens (Human), UniProt P29274). As to the kind of experiment: A2A receptor affinity binding assay (radioligand filtration binding or SPA, [3H]SCH58261). The note with it: membranes from HEK293 or CHO cells expressing human A2A; Method (A) filtration or Method (B) SPA.
In assay [2] the target is human A2B adenosine receptor (Homo sapiens (Human), UniProt P29275). As to the kind of experiment: A2B binding affinity radioligand filtration binding assay. The conditions noted are these: membranes from HEK293 cells expressing human A2B; tritiated proprietary A2B antagonist.
Sequence of human A2B adenosine receptor (P29275 whole entry): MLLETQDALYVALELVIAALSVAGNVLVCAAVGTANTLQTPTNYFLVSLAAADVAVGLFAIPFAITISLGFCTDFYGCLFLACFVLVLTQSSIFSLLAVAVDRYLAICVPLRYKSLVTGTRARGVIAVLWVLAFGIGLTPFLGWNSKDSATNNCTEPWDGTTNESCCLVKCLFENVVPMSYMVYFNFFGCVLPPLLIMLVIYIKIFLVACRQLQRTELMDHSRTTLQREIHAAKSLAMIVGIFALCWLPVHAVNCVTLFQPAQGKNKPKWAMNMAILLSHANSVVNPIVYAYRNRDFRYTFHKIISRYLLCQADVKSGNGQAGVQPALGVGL

Sequence of human A2A adenosine receptor (P29274 whole entry): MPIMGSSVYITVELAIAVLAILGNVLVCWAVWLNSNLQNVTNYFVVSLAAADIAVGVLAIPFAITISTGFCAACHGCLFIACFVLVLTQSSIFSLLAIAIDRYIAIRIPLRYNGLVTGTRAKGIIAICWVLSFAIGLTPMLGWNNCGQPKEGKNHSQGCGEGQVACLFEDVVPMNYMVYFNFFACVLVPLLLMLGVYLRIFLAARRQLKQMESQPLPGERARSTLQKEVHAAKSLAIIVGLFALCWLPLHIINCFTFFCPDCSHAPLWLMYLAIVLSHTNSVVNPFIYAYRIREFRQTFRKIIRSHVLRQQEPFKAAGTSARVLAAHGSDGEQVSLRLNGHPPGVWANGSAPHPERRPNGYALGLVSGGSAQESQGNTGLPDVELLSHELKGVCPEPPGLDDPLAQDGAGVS

Consider `COc1cccc2c1nc(N)n1nc(C3CC3c3cnn(CCO)c3)nc21` (stereo not drawn) [Ex-23, 2-{4-[2-(5-amino-7-methoxy[1,2,4]triazolo [1,5-c]quinazolin-2-yl)cyclopropyl]-1H-pyrazol-1-yl} ethan-1-ol], for which the pIC50 was 8.08 in assay [1] and 6.93 in assay [2].
Consider `COc1cccc2c1nc(N)n1nc(C3CC3c3ccc4c(c3)NCCO4)nc21` (stereo not drawn) [Ex-24, 2-[2-(3,4-dihydro-2H-1,4-benzoxazin-6-yl)cyclopropy1]-7-methoxy[1,2,4]triazolo [1,5-c]quinazolin-5-amine], for which the values for the pIC50 in assay [1] and in assay [2] were 8.05 and 7.37, respectively.
With `COc1cccc2c1nc(N)n1nc(C3CC3c3c[nH]nc3C(F)(F)F)nc21` (stereo not drawn) [Ex-25, 7-methoxy-2-{2-[3-(trifluoromethyl)-1H-pyrazol-4-yl]cyclopropyl} [1,2,4] triazolo[1,5-c] quinazolin-5-amine], the negative-log IC50 (pIC50) in assay [1] is 8.00; in assay [2], 7.02.
Consider `COc1cccc2c1nc(N)n1nc(C3CC3c3cnc(C)nc3)nc21` (stereo not drawn) [Ex-26, 7-methoxy-2-[2-(2-methylpyrimidin-5-yl)cyclopropyl][1,2,4] triazolo[1,5-c] quinazolin-5-amine], for which the values for the pIC50 in assay [1] and in assay [2] were 7.91 and 6.14, respectively.
For `COc1cccc2c1nc(N)n1nc(C3CC3c3cnn(C)c3)nc21` (stereo not drawn) [Ex-27, 7-methoxy-2-[2-(1-methyl-1H-pyrazol-4-yl)cyclopropyl][1,2,4] triazolo[1,5-c] quinazolin-5-amine] the same measures were 7.01 and 6.06.
`COc1cccc2c1nc(N)n1nc(C3(CO)CC3)nc21` [Ex-30, [1-(5-amino-7-methoxy[1,2,4]triazolo [1,5-c]quinazolin-2-yl)cyclopropyl]methanol]: the results for the negative logarithm of the IC50 (pIC50) in assay [1] and in assay [2] were 7.37 and 6.04, respectively.
In the same order, the values of `COc1cccc2c1nc(N)n1nc([C@@H]3C[C@H]3c3ccccc3)nc21` [Ex-34, 7-methoxy-2-[(1r,2r)-2-phenylcyclopropyl] [1,2,4]triazolo[1,5-c] quinazolin-5-amine] are 10.00 and 7.74.
For the molecule `COc1cccc2c1nc(N)n1nc(C3(c4ccccc4)CC3)nc21` [Ex-37, 7-methoxy-2-(1-phenylcyclopropyl) [1,2,4]triazolo[1,5-c] quinazolin-5-amine], the pIC50 in assay [1] is 7.75; in assay [2], 5.70.
As to `COc1cccc2c1nc(N)n1nc(C3CC3c3ccc4c(c3)CCNC4)nc21` (stereo not drawn) [Ex-38, 7-methoxy-2-[(1r,2r)-2-(1,2,3,4-tetrahydroisoquinolin-6-yl)cyclopropyl]-1,10b-dihydro[1,2,4]triazolo [1,5-c]quinazolin-5-amine], the pIC50 was 8.96 in assay [1] and 8.51 in assay [2].
Consider `COc1cccc2c1nc(N)n1nc(C3CC3Cc3ccc(F)cc3)nc21` (stereo not drawn) [Ex-40, 2-(2-(4-fluorobenzyl)cyclopropyl)-7-methoxy-[1,2,4]triazolo[1,5-c]quinazolin-5-amine], for which the pIC50 in assay [1] was 8.85; in assay [2], 8.12.
For the molecule `COc1cccc2c1nc(N)n1nc(C3CC3Cc3ccc(F)cc3)nc21` (stereo not drawn) [Ex-41], the results for the pIC50 in assay [1] and in assay [2] were 8.15 and 6.90, respectively.
Consider `COc1cccc2c1nc(N)n1nc([C@H]3C[C@H](c4ccc(C(C)(C)O)cc4)C3)nc21` [Ex-43, 2-(4-((1r,3r)-3-(5-amino-7-methoxy-[1,2,4]triazolo[1,5-c]quinazolin-2-yl)cyclobutyl)phenyl)propan-2-ol], for which the pIC50 in assay [1] was 7.96; in assay [2], 7.99.
`COc1cccc2c1nc(N)n1nc([C@H]3C[C@H](c4cccc(C(C)(C)O)c4)C3)nc21` [Ex-46, 2-{3-[trans-3-(5-amino-7-methoxy [1,2,4]triazolo [1,5-c]quinazolin-2-yl)cyclobutyl]phenyl} propan-2-ol]: the pIC50 is 7.74 in assay [1] and 7.16 in assay [2].
In the case of `COc1cccc2c1nc(N)n1nc([C@H]3C[C@@H](c4cccc(C(C)(C)O)c4)C3)nc21` [Ex-47, 2-{3-[cis-3-(5-amino-7-methoxy [1,2,4]triazolo [1,5-c]quinazolin-2-yl)cyclobutyl]phenyl} propan-2-ol], the values for the pIC50 in assay [1] and in assay [2] were 8.01 and 7.97, respectively.
Take `COc1cccc2c1nc(N)n1nc([C@H]3C[C@@H](c4ccc(C(C)(C)N)cn4)C3)nc21` [Ex-67, 2-((1s,3s)-3-(5-(2-aminopropan-2-yl)pyridin-2-yl)cyclobutyl)-7-methoxy-[1,2,4]triazolo[1,5-c]quinazolin-5-amine]: the pIC50 in assay [1] is 8.37; in assay [2], 8.74.
As to `COc1cccc2c1nc(N)n1nc([C@H]3C[C@H](c4ccc(C(C)(C)N)cn4)C3)nc21` [Ex-68, 2-((1r,3r)-3-(5-(2-aminopropan-2-yl)pyridin-2-yl)cyclobutyl)-7-methoxy-[1,2,4]triazolo[1,5-c]quinazolin-5-amine], the negative logarithm of the IC50 (pIC50) in assay [1] was 8.70; in assay [2] it was 8.66.
`COc1cc(F)cc2c1nc(N)n1nc(C3CC(c4ccc(C(C)(C)N)cn4)C3)nc21` (stereo not drawn) [Ex-69, 2-{3-[5-(2-aminopropan-2-yl)pyridin-2-yl]cyclobutyl}-9-fluoro-7-methoxy[1,2,4]triazolo[1,5-c]quinazolin-5-amine]: the pIC50 in assay [1] is 8.21; in assay [2], 9.52.
In the same order, the values of `COc1cccc2c1nc(N)n1nc([C@H]3C[C@H](c4ncc(C(C)(C)N)cc4F)C3)nc21` [Ex-85, 2-{trans-3-[5-(2-aminopropan-2-yl)-3-fluoropyridin-2-yl]cyclobutyl}-7-methoxy[1,2,4]triazolo[1,5-c]quinazolin-5-amine] are 8.57 and 8.89.
For the molecule `COc1cccc2c1nc(N)n1nc([C@H]3C[C@H](c4ncc(C(C)(C)N)nc4C)C3)nc21` [Ex-90, 2-((1r,3r)-3-(5-(2-aminopropan-2-yl)-3-methylpyrazin-2-yl)cyclobutyl)-7-methoxy-[1,2,4]triazolo[1,5-c]quinazolin-5-amine], the figures for the negative logarithm of the IC50 (pIC50) in assay [1] and in assay [2] were 9.22 and 7.95, respectively.
As for `COc1cccc2c1nc(N)n1nc([C@H]3C[C@@H](c4ccccc4)C3)nc21` [Ex-135, 7-methoxy-2-((1s,3s)-3-phenylcyclobutyl)-[1,2,4]triazolo[1,5-c]quinazolin-5-amine], the pIC50 in assay [1] is 8.14; in assay [2], 7.45.
In the case of `COc1cccc2c1nc(N)n1nc([C@H]3C[C@H](c4ccccc4)C3)nc21` [Ex-136, 7-methoxy-2-((1r,3r)-3-phenylcyclobutyl)-[1,2,4]triazolo[1,5-c]quinazolin-5-amine], the negative logarithm of the IC50 (pIC50) in assay [1] is 8.66; in assay [2], 6.94.
On to `COc1cccc2c1nc(N)n1nc([C@H]3C[C@@](O)(c4ccc(C(C)(C)O)cn4)C3)nc21` [Ex-137, (1r,3r)-3-(5-amino-7-methoxy-[1,2,4]triazolo[1,5-c]quinazolin-2-yl)-1-(5-(2-hydroxypropan-2-yl)pyridin-2-yl)cyclobutan-1-ol], for which the pIC50 was 8.40 in assay [1] and 8.68 in assay [2].
As to `COc1cccc2c1nc(N)n1nc([C@H]3C[C@@](N)(c4ccc(C(C)(C)O)cn4)C3)nc21` [Ex-138, 2-(6-((l1,3r)-1-amino-3-(5-amino-7-methoxy-[1,2,4]triazolo[1,5-c]quinazolin-2-yl)cyclobutyl)pyridin-3-yl)propan-2-ol], the pIC50 is 8.01 in assay [1] and 7.90 in assay [2].
Regarding `COc1cc(F)cc2c1nc(N)n1nc([C@H]3C[C@](O)(c4ccc(C(C)(C)O)nc4)C3)nc21` [Ex-139, (1s,3s)-3-(5-amino-9-fluoro-7-methoxy-[1,2,4]triazolo[1,5-c]quinazolin-2-yl)-1-(6-(2-hydroxypropan-2-yl)pyridin-3-yl)cyclobutan-1-ol], the values for the pIC50 in assay [1] and in assay [2] were 7.44 and 5.60, respectively.

The pIC50 is −log10 of the IC50, conventionally taken in molar units. Low values mean a high IC50, high ones a low IC50.

For the origin of these results see patent US20250171447A1, “ADENOSINE RECEPTOR ANTAGONISTS, PHARMACEUTICAL COMPOSITIONS AND THEIR USE THEREOF” (Merck Sharp & Dohme LLC, priority 2022, published 2025).
